Laboratory results reported in patent publication US7504400B2, “MTP inhibiting aryl piperydines or piperazines substituted with 5-membered heterocycles” (Janssen Pharmaceutica N.V., priority 2004, dated 2009).

Test system: Secretion of ApoB
Assay: Quantification of the secretion of ApoB in HepG2 cells
Assay type: cell-based
Conditions: Homo sapiens, HepG2, 24 h, 24 hours of incubation with test compound, immunoprecipitation of apoB from medium, read-out: pIC50 value (=-log IC50 value), secretion of ApoB (converted)
Experimental: HepG2 cells were cultured in 24-well plates in MEM Rega 3 containing 10% fetal calf serum. At 70% confluency, the medium was changed and the test compound or carrier (DMSO, 0.4% final concentration) was added. After 24 hours of incubation, the medium was transferred to Eppendorf tubes and cleared by centrifugation. A sheep antibody directed against either apoB was added to the supernatant and the mixture was kept at 8° C. for 24 hours. Then, rabbit anti-sheep antibody was added and the immune complex was allowed to precipitate for 24 hours at 8° C. The immunoprecipitate was pelleted by centrifugation for 25 minutes at 1320 g and washed twice with a buffer containing 40 mM Mops, 40 mM NaH2PO4, 100 mM NaF, 0.2 mM DTT, 5 mM EDTA, 5 mM EGTA, 1% Triton-X-100, 0.5% sodium deoxycholate (DOC), 0.1% SDS, 0.2 μM leupeptin and 0.2 μM PMSF. Radioactivity in the pellet was quantified by liquid scintillation-counting. The IC50 values are usually converted to pIC50 values (=−log IC50 value) for ease of use.

Structure (SMILES) | IC50
CCOC(=O)[C@H](c1ccccc1)N1CCN(c2ccc(-n3ccn([C@H](C)c4ccccc4)c3=O)cc2)CC1 (relative stereo) [Compound 267] | < 31.6 nM
CCOC(=O)[C@H](c1ccccc1)N1CCN(c2ccc(-n3ccn([C@H](C)c4ccc(F)cc4)c3=O)cc2)CC1 (relative stereo) [Compound 268] | 31.6 to 316 nM
CCOC(=O)[C@H](c1ccccc1)N1CCN(c2ccc(-n3ccn([C@H](C)c4cccc(C(F)(F)F)c4)c3=O)cc2)CC1 (relative stereo) [Compound 269] | 31.6 to 316 nM
CCOC(=O)[C@H](c1ccccc1)N1CCN(c2ccc(-n3ccn([C@H](C)c4ccc(C(F)(F)F)cc4)c3=O)cc2)CC1 (relative stereo) [Compound 270] | 31.6 to 316 nM
CCOC(=O)[C@H](c1ccccc1)N1CCN(c2ccc(-n3ccn([C@@H](C)c4ccccc4F)c3=O)cc2)CC1 (relative stereo) [Compound 272] | 316 to 3160 nM
CCOC(=O)[C@@H](c1ccccc1)N1CCN(c2ccc(-n3ccn([C@H](C)c4ccc(F)cc4)c3=O)cc2)CC1 (relative stereo) [Compound 273] | 316 to 3160 nM
CCOC(=O)[C@@H](c1ccccc1)N1CCN(c2ccc(-n3ccn([C@@H](C)c4cc(C(F)(F)F)cc(C(F)(F)F)c4)c3=O)cc2)CC1 (relative stereo) [Compound 274] | 316 to 3160 nM
CCOC(=O)[C@@H](c1ccccc1)N1CCN(c2ccc(-n3cnn([C@@H](C)c4ccccc4)c3=O)cc2)CC1 (relative stereo) [Compound 281] | 31.6 to 316 nM
CCOC(=O)[C@@H](c1ccccc1)N1CCN(c2ccc(-n3cnn([C@H](C)c4ccc(F)cc4)c3=O)cc2)CC1 (relative stereo) [Compound 298] | 316 to 3160 nM
CCOC(=O)[C@@H](c1ccccc1)N1CCN(c2ccc(-n3cnn([C@@H](C)c4ccc(F)cc4)c3=O)cc2)CC1 (relative stereo) [Compound 299] | 31.6 to 316 nM
CCOC(=O)[C@H](c1ccccc1)N1CCN(c2ccc(-n3ccn([C@H](C)c4ccccc4F)c3=O)cc2)CC1 (stereo in doubt) [Compound 271] | 31.6 to 316 nM
CCOC(=O)[C@@H](c1ccccc1)N1CCN(c2ccc(-n3ccn([C@@H](C)c4ccccc4F)c3=O)cc2)CC1 (stereo in doubt) [Compound 275] | 316 to 3160 nM
CCOC(=O)[C@@H](c1ccccc1)N1CCN(c2ccc(-n3cnn([C@H](C)c4ccccc4)c3=O)cc2)CC1 (stereo in doubt) [Compound 280] | 316 to 3160 nM
CCOC(=O)[C@H](c1ccccc1)N1CCN(c2ccc(-n3cnn([C@@H](C)c4ccccc4)c3=O)cc2)CC1 (stereo in doubt) [Compound 304] | 31.6 to 316 nM
CCOC(=O)[C@H](c1ccccc1)N1CCN(c2ccc(-n3ccn(C(C)c4cccc(F)c4)c3=O)cc2)CC1 (stereo in doubt) [Compound 337] | 31.6 to 316 nM
CCOC(=O)[C@H](c1ccccc1)N1CCN(c2ccc(-n3ccn(C(C)c4cccc(F)c4F)c3=O)cc2)CC1 (stereo in doubt) [Compound 338] | 31.6 to 316 nM
CCOC(=O)[C@H](c1ccccc1)N1CCN(c2ccc(-n3ccn(C(C)c4ccc(F)cc4F)c3=O)cc2)CC1 (stereo in doubt) [Compound 339] | 31.6 to 316 nM
CCOC(=O)[C@H](c1ccccc1)N1CCN(c2ccc(-n3ccn(C(C)c4cc(F)ccc4F)c3=O)cc2)CC1 (stereo in doubt) [Compound 340] | 31.6 to 316 nM
CCOC(=O)[C@H](c1ccccc1)N1CCN(c2ccc(-n3ccn(C(C)c4ccc(F)c(F)c4)c3=O)cc2)CC1 (stereo in doubt) [Compound 341] | 31.6 to 316 nM
CCOC(=O)[C@H](c1ccccc1)N1CCN(c2ccc(-n3ccn(C(C)c4cc(F)cc(F)c4)c3=O)cc2)CC1 (stereo in doubt) [Compound 342] | 31.6 to 316 nM
CCCN(CCC)C(=O)C(CCN1CCN(c2ccc(-n3ncn(C(C)C)c3=O)cc2)CC1)c1ccccc1 (stereo not shown) [Compound 3] | 31.6 to 316 nM
COCCNC(=O)C(c1ccccc1)N1CCN(c2ccc(-n3cnn(C(C)C)c3=O)cn2)CC1 (stereo not shown) [Compound 4] | 316 to 3160 nM
CC(C)n1cnn(-c2ccc(N3CCN(C(C(=O)Nc4ccccc4)c4ccccc4)CC3)cc2)c1=O (stereo not shown) [Compound 5] | 316 to 3160 nM

Structure (SMILES) | IC50
CC(C)n1ncn(-c2ccc(N3CCN(CC(C(=O)N(C)C)c4ccccc4)CC3)cc2)c1=O (stereo not shown) [Compound 6] | 31.6 to 316 nM
CC(C)NC(=O)C(c1ccccc1)N1CCN(c2ccc(-n3cnn(C(C)C)c3=O)cc2)CC1 (stereo not shown) [Compound 7] | 31.6 to 316 nM
CC(C)n1ncn(-c2ccc(N3CCN(C(C(=O)Nc4ccccc4)c4ccccc4)CC3)cc2)c1=O (stereo not shown) [Compound 8] | 31.6 to 316 nM
CCCC(C(=O)OCC)N1CCN(c2ccc(-n3cnn(C(C)C)c3=O)cc2)CC1 (stereo not shown) [Compound 9] | 316 to 3160 nM
CC(C)n1ncn(-c2ccc(N3CCN(C(C(=O)Nc4ccncc4)c4ccccc4)CC3)cc2)c1=O (stereo not shown) [Compound 10] | 316 to 3160 nM
CC(C)n1ncn(-c2ccc(N3CCN(C(C(=O)Nc4ccc5c(c4)CCC5)c4ccccc4)CC3)cc2)c1=O (stereo not shown) [Compound 11] | < 31.6 nM
Cc1cccc(NC(=O)C(c2ccccc2)N2CCN(c3ccc(-n4cnn(C(C)C)c4=O)cc3)CC2)n1 (stereo not shown) [Compound 12] | 316 to 3160 nM
CCOC(=O)C(c1cccs1)N1CCN(c2ccc(-n3cnn(C(C)C)c3=O)cc2)CC1 (stereo not shown) [Compound 13] | 316 to 3160 nM
CC(C)n1ncn(-c2ccc(N3CCN(C(C(=O)Nc4cccc5cccnc45)c4ccccc4)CC3)cc2)c1=O (stereo not shown) [Compound 15] | 316 to 3160 nM
CC(C)n1ncn(-c2ccc(N3CCN(C(C(=O)Nc4cccnc4)c4ccccc4)CC3)cc2)c1=O (stereo not shown) [Compound 16] | 316 to 3160 nM
CCOC(=O)C(c1ccccc1)N1CCN(c2ccc(-n3cnn(C(C)C)c3=O)cc2)CC1 (stereo not shown) [Compound 17] | 316 to 3160 nM
CNC(=O)C(c1ccccc1)N1CCN(c2ccc(-n3cnn(C(C)C)c3=O)cn2)CC1 (stereo not shown) [Compound 18] | 316 to 3160 nM
CC(C)n1ncn(-c2ccc(C3CCN(C(C(=O)Nc4ccccc4)c4ccccc4)CC3)cc2)c1=O (stereo not shown) [Compound 19] | 31.6 to 316 nM
CC(C)n1ncn(-c2ccc(C3CCN(C(C(=O)NCc4ccccc4)c4ccccc4)CC3)cc2)c1=O (stereo not shown) [Compound 20] | 31.6 to 316 nM
CCC(C)n1ncn(-c2ccc(N3CCN(C(C(=O)NC(C)C)c4ccccc4)CC3)cc2)c1=O (stereo not shown) [Compound 21] | 31.6 to 316 nM
CCC(C)n1ncn(-c2ccc(N3CCN(C(C(=O)NCc4ccccc4)c4ccccc4)CC3)cc2)c1=O (stereo not shown) [Compound 22] | 31.6 to 316 nM
CCC(C)n1ncn(-c2ccc(N3CCN(C(C(=O)Nc4ccccc4)c4ccccc4)CC3)cc2)c1=O (stereo not shown) [Compound 23] | 31.6 to 316 nM
CCC(C)n1ncn(-c2ccc(N3CCN(C(C(=O)N(C)C)c4ccccc4)CC3)cc2)c1=O (stereo not shown) [Compound 24] | 31.6 to 316 nM
O=C(NCc1ccccc1)C(c1ccccc1)N1CCN(c2ccc(-n3nc(-c4ccccc4)n(-c4ccccc4)c3=O)cc2)CC1 (stereo not shown) [Compound 25] | 316 to 3160 nM
CCNC(=O)C(c1ccccc1)N1CCN(c2ccc(-n3nc(-c4ccccc4)n(-c4ccccc4)c3=O)cc2)CC1 (stereo not shown) [Compound 26] | 316 to 3160 nM
CCNC(=O)C(c1ccccc1)N1CCN(c2ccc(-n3c(-c4ccccc4)nn(-c4ccccc4)c3=O)cc2)CC1 (stereo not shown) [Compound 28] | 316 to 3160 nM
COC(=O)C(c1ccccc1)N1CCN(c2ccc(-n3nc(-c4ccccc4)n(-c4ccccc4)c3=O)cc2)CC1 (stereo not shown) [Compound 29] | 316 to 3160 nM
CCCNC(=O)C(c1ccccc1)N1CCN(c2ccc(-n3nc(-c4ccccc4)n(C(C)C)c3=O)cc2)CC1 (stereo not shown) [Compound 30] | 316 to 3160 nM
